Results reported in patent publication US12662479B2 (Foghorn Therapeutics Inc., priority 2020, dated 2026).

Legend:
HiBit-BRM fusion protein = target: T1, HiBit-BRM fusion protein (Homo sapiens, UniProt P51531); experiment: HiBiT-BRM cell-based degradation assay (Nano-Glo HiBiT Lytic Detection, 24 h); details: HeLa cells expressing HiBiT-BRM; for DC50: read-out: BRM HiBit Degradation IC50; for BRM HiBit Degradation Maximum measured: top dose 30 μM
T1 construct: expressed in transfected cells
Method in brief: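 Stable HiBiT-BRM HeLa line; 24 h compound exposure, top final 30 μM, 3-fold, 10 pts in duplicate. Lytic HiBiT/LgBiT luminescence readout. % degradation vs DMSO (0%) and 2 μM known BRM/BRG1 degrader (100%).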

[1] = target: T2, HiBit-BRG1 fusion protein (Homo sapiens, UniProt P51532); experiment: HiBiT-BRG1 cell-based degradation assay (Nano-Glo HiBiT Lytic Detection, 24 h); details: HeLa cells expressing HiBit-BRG1 and LgBit; for DC50: read-out: BRG1 HiBit Degradation IC50; for Dmax: HeLa, top dose 30 μM, read-out: BRG1 HiBit Degradation Maximum measured
T2 construct: expressed in transfected cells
T2 sequence (P51532 whole entry, the tested form may be a part): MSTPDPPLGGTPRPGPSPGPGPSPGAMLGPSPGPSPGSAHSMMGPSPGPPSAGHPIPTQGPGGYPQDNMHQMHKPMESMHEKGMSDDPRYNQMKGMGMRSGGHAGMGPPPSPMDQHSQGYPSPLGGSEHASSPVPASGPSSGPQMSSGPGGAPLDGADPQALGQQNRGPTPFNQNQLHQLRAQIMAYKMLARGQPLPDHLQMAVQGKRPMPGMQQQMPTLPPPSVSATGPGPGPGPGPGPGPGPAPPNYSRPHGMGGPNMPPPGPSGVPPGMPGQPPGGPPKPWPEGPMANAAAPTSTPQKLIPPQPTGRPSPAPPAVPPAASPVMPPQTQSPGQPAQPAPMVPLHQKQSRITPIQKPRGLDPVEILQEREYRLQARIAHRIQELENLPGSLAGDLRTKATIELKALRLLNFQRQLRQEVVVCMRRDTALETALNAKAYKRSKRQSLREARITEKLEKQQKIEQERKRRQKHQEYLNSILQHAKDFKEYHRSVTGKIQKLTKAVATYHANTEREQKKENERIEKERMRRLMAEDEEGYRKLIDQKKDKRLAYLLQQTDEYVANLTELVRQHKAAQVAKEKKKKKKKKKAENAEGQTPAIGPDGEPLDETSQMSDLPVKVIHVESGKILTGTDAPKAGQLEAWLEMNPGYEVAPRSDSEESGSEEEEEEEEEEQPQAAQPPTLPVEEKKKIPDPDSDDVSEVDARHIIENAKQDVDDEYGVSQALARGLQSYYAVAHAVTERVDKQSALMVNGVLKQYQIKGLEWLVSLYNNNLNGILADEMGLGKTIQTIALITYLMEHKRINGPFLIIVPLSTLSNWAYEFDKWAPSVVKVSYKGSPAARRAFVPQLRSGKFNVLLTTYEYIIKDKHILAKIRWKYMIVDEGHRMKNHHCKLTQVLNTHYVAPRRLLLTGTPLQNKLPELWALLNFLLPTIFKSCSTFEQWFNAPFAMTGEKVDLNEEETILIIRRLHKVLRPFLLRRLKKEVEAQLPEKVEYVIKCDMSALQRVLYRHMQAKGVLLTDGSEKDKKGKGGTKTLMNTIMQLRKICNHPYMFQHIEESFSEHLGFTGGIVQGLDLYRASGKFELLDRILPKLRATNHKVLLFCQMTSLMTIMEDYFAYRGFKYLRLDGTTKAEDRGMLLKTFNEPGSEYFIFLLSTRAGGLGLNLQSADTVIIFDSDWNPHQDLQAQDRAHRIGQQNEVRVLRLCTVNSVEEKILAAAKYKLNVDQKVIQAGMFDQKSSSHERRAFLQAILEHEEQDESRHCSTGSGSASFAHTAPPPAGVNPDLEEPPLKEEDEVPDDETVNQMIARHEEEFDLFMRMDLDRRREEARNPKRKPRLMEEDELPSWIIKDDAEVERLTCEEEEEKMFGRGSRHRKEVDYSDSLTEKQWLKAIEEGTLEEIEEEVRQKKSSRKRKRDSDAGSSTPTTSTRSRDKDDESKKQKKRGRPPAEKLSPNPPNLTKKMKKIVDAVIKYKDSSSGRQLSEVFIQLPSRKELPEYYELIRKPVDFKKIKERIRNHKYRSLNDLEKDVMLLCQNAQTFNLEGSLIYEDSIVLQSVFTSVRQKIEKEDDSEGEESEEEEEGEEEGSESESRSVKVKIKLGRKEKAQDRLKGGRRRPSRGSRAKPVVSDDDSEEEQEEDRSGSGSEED
Method in brief: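 Degradation is scaled from DMSO-treated cells (0%) to cells given 2 μM of a known BRM/BRG1 degrader (100%). HeLa cells stably carrying HiBiT-BRG1 plus LgBiT (5000/well) were lysed with Nano-Glo HiBiT detection reagent, shaken 10 min at RT, and luminescence read.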

T1 sequence (P51531 whole entry, the tested form may be a part): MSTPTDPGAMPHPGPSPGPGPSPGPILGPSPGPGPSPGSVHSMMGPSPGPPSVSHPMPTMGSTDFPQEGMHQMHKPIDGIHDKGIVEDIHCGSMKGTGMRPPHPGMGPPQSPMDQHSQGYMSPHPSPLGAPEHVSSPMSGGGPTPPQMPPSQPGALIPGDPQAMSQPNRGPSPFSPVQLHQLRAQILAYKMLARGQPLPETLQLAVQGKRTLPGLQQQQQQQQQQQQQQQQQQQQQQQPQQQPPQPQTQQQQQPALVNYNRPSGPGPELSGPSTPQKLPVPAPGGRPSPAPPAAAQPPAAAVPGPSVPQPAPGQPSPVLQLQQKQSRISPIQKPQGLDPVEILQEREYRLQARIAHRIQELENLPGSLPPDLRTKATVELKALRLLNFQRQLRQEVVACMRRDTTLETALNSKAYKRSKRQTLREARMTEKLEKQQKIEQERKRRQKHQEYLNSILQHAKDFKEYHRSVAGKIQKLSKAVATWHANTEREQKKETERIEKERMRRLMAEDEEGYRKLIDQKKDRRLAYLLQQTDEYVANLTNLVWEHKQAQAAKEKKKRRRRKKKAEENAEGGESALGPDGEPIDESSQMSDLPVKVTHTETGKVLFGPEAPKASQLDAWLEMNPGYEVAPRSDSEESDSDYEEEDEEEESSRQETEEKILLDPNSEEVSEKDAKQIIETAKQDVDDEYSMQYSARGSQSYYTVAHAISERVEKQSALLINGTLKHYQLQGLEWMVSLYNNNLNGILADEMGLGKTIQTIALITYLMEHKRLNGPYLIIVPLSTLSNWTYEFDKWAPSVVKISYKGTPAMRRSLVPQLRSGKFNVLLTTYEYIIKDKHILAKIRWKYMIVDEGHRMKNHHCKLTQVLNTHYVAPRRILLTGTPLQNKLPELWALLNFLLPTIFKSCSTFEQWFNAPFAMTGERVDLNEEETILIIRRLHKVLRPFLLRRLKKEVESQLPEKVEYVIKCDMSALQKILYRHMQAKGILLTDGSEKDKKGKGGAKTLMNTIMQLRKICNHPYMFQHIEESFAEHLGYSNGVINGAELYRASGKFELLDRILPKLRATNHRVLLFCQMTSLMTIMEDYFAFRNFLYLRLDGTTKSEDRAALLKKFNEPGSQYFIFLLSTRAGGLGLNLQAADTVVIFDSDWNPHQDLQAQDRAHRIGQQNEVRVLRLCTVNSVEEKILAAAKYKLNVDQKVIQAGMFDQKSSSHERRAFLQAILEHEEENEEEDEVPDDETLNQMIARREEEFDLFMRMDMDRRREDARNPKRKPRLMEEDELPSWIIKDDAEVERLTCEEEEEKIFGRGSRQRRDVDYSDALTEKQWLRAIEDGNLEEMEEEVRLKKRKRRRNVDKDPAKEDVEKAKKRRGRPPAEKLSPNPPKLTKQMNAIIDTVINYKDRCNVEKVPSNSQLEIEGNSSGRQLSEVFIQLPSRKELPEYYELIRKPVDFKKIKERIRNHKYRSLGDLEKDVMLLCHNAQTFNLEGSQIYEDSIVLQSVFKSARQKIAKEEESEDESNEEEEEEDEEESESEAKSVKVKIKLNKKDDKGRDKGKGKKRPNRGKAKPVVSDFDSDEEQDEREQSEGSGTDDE

Cc1ncsc1-c1ccc(CNC(=O)[C@@H]2C[C@@H](O)CN2C(=O)[C@@H](NC(=O)CCCCCCCCCCCCC(=O)NCCCC[C@H](NC(=O)c2ccn(S(C)(=O)=O)c2)C(=O)Nc2nc(-c3ccccc3)cs2)C(C)(C)C)cc1 [Compound 267, N-[(2S)-1-[(2S,4R)-4-hydroxy-2-([[4-(4-methyl-1,3-thiazol-5-yl)phenyl]methyl]carbamoyl)pyrrolidin-1-yl]-3,3-dimethyl-1-oxobutan-2-yl]-N-[(5S)-5-[(1-methanesulf-onylpyrrol-3-yl)formamido]-5-[(4-phenyl-1,3-thiazol-2-yl)carbamoyl]pentyl]tetradecanediamide]
DC50 (HiBit-BRM fusion protein): > 10000 nM | BRM HiBit Degradation Maximum measured (HiBit-BRM fusion protein): C (‘C’ = Maximum degradation <50%) | DC50 [1]: > 10000 nM | Dmax [1]: < 50%

CS(=O)(=O)n1ccc(C(=O)NCC(=O)Nc2nc(-c3cccc(-c4ccnc(OCCNC(=O)CCOCCOCCOc5ccc6c(c5)C(=O)N(C5CCC(=O)NC5=O)C6=O)c4)c3)cs2)c1 (stereo not drawn) [Compound 38, N-(2-((4-(3-(2-(2-(3-(2-(2-((2-(2,6-dioxopiperidin-3-yl)-1,3-dioxoisoindolin-5-yl)oxy)ethoxy)ethoxy)propanamido)ethoxy)pyridin-4-yl)phenyl)thiazol-2-yl)amino)-2-oxoethyl)-1-(methylsulfonyl)-1H-pyrrole-3-carboxamide]
DC50 (HiBit-BRM fusion protein): > 10000 nM | BRM HiBit Degradation Maximum measured (HiBit-BRM fusion protein): C (‘C’ = Maximum degradation <50%) | DC50 [1]: 100 to 1000 nM | Dmax [1]: > 75%

CS(=O)(=O)n1ccc(C(=O)N[C@@H](COCc2ccc(C(=O)NCCOc3cccc(OCCNc4ccc5c(c4)C(=O)N(C4CCC(=O)NC4=O)C5=O)c3)cc2)C(=O)Nc2nc(-c3ccccc3)cs2)c1 (stereo partly drawn) [Compound 207, N-[2-[3-(2-[[2-(2,6-dioxopiperidin-3-yl)-1,3-dioxoisoindol-5-yl]amino]ethoxy)phenoxy]ethyl]-4-[[(2S)-2-[(1-methanesulfonylpyrrol-3-yl)formamido]-2-[(4-phenyl-1,3-thiazol-2-yl)carbamoyl]ethoxy]methyl]benzamide]
DC50 (HiBit-BRM fusion protein): 100 to 1000 nM | BRM HiBit Degradation Maximum measured (HiBit-BRM fusion protein): B (‘B’ = Maximum degradation ≥50% and ≤75%) | DC50 [1]: 100 to 1000 nM | Dmax [1]: 50 to 75%

CS(=O)(=O)n1ccc(C(=O)NCC(=O)Nc2nc(-c3cccc(-c4ccnc(C5(C(=O)NC6CCN(CCCCOc7ccc8c(c7)C(=O)N(C7CCC(=O)NC7=O)C8=O)CC6)CC5)c4)c3)cs2)c1 (stereo not drawn) [Compound 140, N-[1-(4-[[2-(2,6-dioxopiperidin-3-yl)-1,3-dioxoisoindol-5-yl]oxy]butyl)piperidin-4-yl]-1-[4-[3-(2-[2-[(1-methanesulfonylpyrrol-3-yl)formamido]acetamido]-1,3-thiazol-4-yl)phenyl]pyridin-2-yl]cyclopropane-1-carboxamide]
DC50 (HiBit-BRM fusion protein): 100 to 1000 nM | BRM HiBit Degradation Maximum measured (HiBit-BRM fusion protein): A (‘A’ = Maximum degradation >75%) | DC50 [1]: 100 to 1000 nM | Dmax [1]: > 75%

CS(=O)(=O)n1ccc(C(=O)N[C@@H](CCOCCCC(=O)NCCOCCOCCNC(=O)COc2cccc3c2C(=O)N(C2CCC(=O)NC2=O)C3=O)C(=O)Nc2nc(-c3ccccc3)cs2)c1 (stereo partly drawn) [Compound 223, (2S)-4-[3-[(2-[2-[2-(2-[[2-(2,6-dioxopiperidin-3-yl)-1,3-dioxoisoindol-4-yl]oxy]acetamido)ethoxy]ethoxy]ethyl)carbamoyl]propoxy]-2-[(1-methanesulfonylpyrrol-3-yl)formamido]-N-(4-phenyl-1,3-thiazol-2-yl)butanamide]
DC50 (HiBit-BRM fusion protein): > 10000 nM | BRM HiBit Degradation Maximum measured (HiBit-BRM fusion protein): C (‘C’ = Maximum degradation <50%) | DC50 [1]: > 10000 nM | Dmax [1]: < 50%

Cc1ncsc1-c1ccc(CNC(=O)[C@@H]2CC(O)CN2C(=O)[C@@H](NC(=O)COCCOCCOCCNC(=O)CN(C)c2cc(-c3cccc(-c4csc(NC(=O)CNC(=O)c5ccn(S(C)(=O)=O)c5)n4)c3)ccn2)C(C)(C)C)cc1 (stereo partly drawn) [Compound 89]
DC50 (HiBit-BRM fusion protein): > 10000 nM | BRM HiBit Degradation Maximum measured (HiBit-BRM fusion protein): C (‘C’ = Maximum degradation <50%) | DC50 [1]: > 10000 nM | Dmax [1]: < 50%

CS(=O)(=O)n1ccc(C(=O)N[C@@H](COCc2ccc(CNC(=O)C3CCN(CCOc4ccc5c(c4)C(=O)N(C4CCC(=O)NC4=O)C5=O)CC3)cc2)C(=O)Nc2nc(-c3ccccc3)cs2)c1 (stereo partly drawn) [Compound 216, 1-(2-[[2-(2,6-dioxopiperidin-3-yl)-1,3-dioxoisoindol-5-yl]oxy]ethyl)-N-[(4-[[(2S)-2-[(1-methanesulfonylpyrrol-3-yl)formamido]-2-[(4-phenyl-1,3-thiazol-2-yl)carbamoyl]ethoxy]methyl]phenyl)methyl]piperidine-4-carboxamide; formic acid]
DC50 (HiBit-BRM fusion protein): 100 to 1000 nM | BRM HiBit Degradation Maximum measured (HiBit-BRM fusion protein): A (‘A’ = Maximum degradation >75%) | DC50 [1]: 100 to 1000 nM | Dmax [1]: > 75%

CS(=O)(=O)n1ccc(C(=O)N[C@@H](COCc2ccc(CNC(=O)CCCCCCOc3cccc4c3C(=O)N(C3CCC(=O)NC3=O)C4=O)cc2)C(=O)Nc2nc(-c3ccccc3)cs2)c1 (stereo partly drawn) [Compound 179, 7-[[2-(2,6-dioxopiperidin-3-yl)-1,3-dioxoisoindol-4-yl]oxy]-N-[(4-[[(2S)-2-[(1-methanesulfonylpyrrol-3-yl)formamido]-2-[(4-phenyl-1,3-thiazol-2-yl)carbamoyl]ethoxy]methyl]phenyl)methyl]heptanamide]
DC50 (HiBit-BRM fusion protein): > 10000 nM | BRM HiBit Degradation Maximum measured (HiBit-BRM fusion protein): C (‘C’ = Maximum degradation <50%) | DC50 [1]: > 10000 nM | Dmax [1]: < 50%

Cc1ncsc1-c1ccc(CNC(=O)[C@@H]2C[C@@H](O)CN2C(=O)[C@@H](NC(=O)COCCOCC(=O)N2CCN(c3cc(-c4cccc(-c5csc(NC(=O)CNC(=O)c6ccn(S(C)(=O)=O)c6)n5)c4)ccn3)CC2)C(C)(C)C)cc1 [Compound 75, N-(2-((4-(3-(2-(4-(2-(2-(2-(((S)-1-((2S,4R)-4-hydroxy-2-((4-(4-methylthiazol-5-yl)benzyl)carbamoyl)pyrrolidin-1-yl)-3,3-dimethyl-1-oxobutan-2-yl)amino)-2-oxoethoxy)ethoxy)acetyl)piperazin-1-yl)pyridin-4-yl)phenyl)thiazol-2-yl)amino)-2-oxoethyl)-1-(methylsulfonyl)-1H-pyrrole-3-carboxamide]
DC50 (HiBit-BRM fusion protein): 100 to 1000 nM | BRM HiBit Degradation Maximum measured (HiBit-BRM fusion protein): B (‘B’ = Maximum degradation ≥50% and ≤75%) | DC50 [1]: 100 to 1000 nM | Dmax [1]: > 75%

CS(=O)(=O)n1ccc(C(=O)NCC(=O)Nc2nc(-c3cccc(-c4ccnc(C5(C(=O)N6CC(COc7ccc8c(c7)C(=O)N(C7CCC(=O)NC7=O)C8=O)C6)CC5)c4)c3)cs2)c1 (stereo not drawn) [Compound 107, N-(2-((4-(3-(2-(1-(3-(((2-(2,6-dioxopiperidin-3-yl)-1,3-dioxoisoindolin-5-yl)oxy)methyl)azetidine-1-carbonyl)cyclopropyl)pyridin-4-yl)phenyl)thiazol-2-yl)amino)-2-oxoethyl)-1-(methylsulfonyl)-1H-pyrrole-3-carboxamide]
DC50 (HiBit-BRM fusion protein): > 10000 nM | BRM HiBit Degradation Maximum measured (HiBit-BRM fusion protein): C (‘C’ = Maximum degradation <50%) | DC50 [1]: > 10000 nM | Dmax [1]: < 50%

CS(=O)(=O)n1ccc(C(=O)NCC(=O)Nc2nc(-c3cccc(-c4ccnc(C5(C(=O)NCCCCNc6ccc7c(c6)C(=O)N(C6CCC(=O)NC6=O)C7=O)CC5)c4)c3)cs2)c1 (stereo not drawn) [Compound 105, N-[2-[[4-[3-[2-[1-[4-[[2-(2,6-dioxo-3-piperidyl)-1,3-dioxo-isoindolin-5-yl]amino]butylcarbamoyl]cyclopropyl]-4-pyridyl]phenyl]thiazol-2-yl]amino]-2-oxo-ethyl]-1-methylsulfonyl-pyrrole-3-carboxamide]
DC50 (HiBit-BRM fusion protein): < 100 nM | BRM HiBit Degradation Maximum measured (HiBit-BRM fusion protein): A (‘A’ = Maximum degradation >75%) | DC50 [1]: < 100 nM | Dmax [1]: > 75%

CC(C)(C)n1ccc(C(=O)N[C@@H](COCc2ccc(C(=O)NCCOC3CN(c4ccc5c(c4)C(=O)N(C4CCC(=O)NC4=O)C5=O)C3)cc2)C(=O)Nc2nc(-c3ccccc3)cs2)c1 (stereo partly drawn) [Compound 171]
DC50 (HiBit-BRM fusion protein): < 100 nM | DC50 [1]: < 100 nM

CS(=O)(=O)n1ccc(C(=O)NCC(=O)Nc2nc(-c3cccc(-c4ccnc(C5(C(=O)NCCNc6cccc7c6CN(C6CCC(=O)NC6=O)C7=O)CC5)c4)c3)cs2)c1 (stereo not drawn) [Compound 169, N-(2-((4-(3-(2-(1-((2-((2-(2,6-dioxopiperidin-3-yl)-1-oxoisoindolin-4-yl)amino)ethyl)carbamoyl)cyclopropyl)pyridin-4-yl)phenyl)thiazol-2-yl)amino)-2-oxoethyl)-1-(methylsulfonyl)-1H-pyrrole-3-carboxamide]
DC50 (HiBit-BRM fusion protein): > 10000 nM | BRM HiBit Degradation Maximum measured (HiBit-BRM fusion protein): C (‘C’ = Maximum degradation <50%) | DC50 [1]: > 10000 nM | Dmax [1]: < 50%

CS(=O)(=O)n1ccc(C(=O)NCC(=O)Nc2nc(-c3cccc(-c4ccnc(C5(C(=O)NCCOCCOCCNc6cccc7c6C(=O)N(C6CCC(=O)NC6=O)C7=O)CC5)c4)c3)cs2)c1 (stereo not drawn) [Compound 11, N-[2-[[4-[3-[2-[1-[2-[2-[2-[[2-(2,6-dioxo-3-piperidyl)-1,3-dioxo-isoindolin-4-yl]amino]ethoxy]ethoxy]ethylcarbamoyl]cyclopropyl]-4-pyridyl]phenyl]thiazol-2-yl]amino]-2-oxo-ethyl]-1-methylsulfonylpyrrole-3-carboxamide]
DC50 (HiBit-BRM fusion protein): > 10000 nM | BRM HiBit Degradation Maximum measured (HiBit-BRM fusion protein): C (‘C’ = Maximum degradation <50%) | DC50 [1]: 1000 to 10000 nM | Dmax [1]: 50 to 75%
